Assay results published in US10968224B2, “2,11-diaza-[3.3](2,6)pyridinophane compounds and their application as ligands of essential metal ion based MRI contrast agents and 52MN based PET contrast agents” (DEBRECENI EGYETEM, priority 2015, dated 2021).

Key:
[1] = Equilibrium study: protonation constants of the ligands; type: physicochemical; settings: 25° C., 0.15M NaCl
Description: (§1) During the physico-chemical studies of BP2AM^Pyp and BP2AM^Pro compounds prepared according to Example 1 and 2, their protonation constants, as well as equilibrium behaviour and kinetic inertness of their Mn(II) complexes was studied in detail, and the characteristic relaxivity values of the complexes were determined in the presence and absence of HSA (Human Serum Albumin), at 25 and 37° C. and physiological pH. All studies were performed in the presence of 0.15 M NaCl, the same concentration as that of the electrolyte under physiological conditions.
(§2) The results of equilibrium study are summarized in Table 1, in addition to the protonation constants, total basicity of ligands and stability constants of their Mn(II) complexes, the pMn value calculated for complexes are also represented in the table.

[2] = Equilibrium study: stability constants of the Mn(II) complexes and calculated pMn; type: physicochemical; settings: 25° C., 0.15M NaCl; for pMn: calculated from equilibrium constants at pH = 7.4 and cMn = cL = 10^−5 M
Description: as §1, §2
Based on the pMn values presented in Table 1 (calculated using the equilibrium constants at pH=7.4 and cMn=cL=10^−5 M), it can be concluded that the studied Mn(II) complexes are formed in 100% at physiological pH, which is an essential aspect of the practical use.

[3] = literature values, stated as under the same conditions; cited from earlier work
[4] = cited from earlier work

SMILES | logK1 (protonation constant) [1] | logK2 (protonation constant) [1] | logK3 (protonation constant) [1] | logK4 (protonation constant) [1] | ΣlogKi^H (total basicity) [1] | logKMnL (stability constant of Mn(II) complex) [2] | pMn [2] | r1 relaxivity [3] | Gd(III) ion released, calculated on the basis of experiments ([4]; 25° C.) | Gd(III) ion released during in vivo dissociation ([4]; 37° C.)
O=C(O)C1CCCN1C(=O)CN1Cc2cccc(n2)CN(CC(=O)N2CCCC2C(=O)O)Cc2cccc(n2)C1 (stereo not shown) [BP2AM^Pro] | 8.83(1) | 3.89(2) | 3.05(2) | 2.39(2) | 18.16 | 11.47(5) | 7.51 |  |  | 
O=C(CN1Cc2cccc(n2)CN(CC(=O)N2CCCCC2)Cc2cccc(n2)C1)N1CCCCC1 [BP2AM^Pyp, 2,11-bis[2-oxo-2-(piperidine-1-il)-ethyl]-2,11-diaza[3.3](2,6)-pyridinophane] | 9.57(2) | 2.99(2) |  |  | 12.56 | 13.58(1) | 8.19 |  |  | 
CNC[C@H](O)[C@@H](O)[C@H](O)[C@H](O)CO.O=C([O-])CN1CCN(CC(=O)[O-])CCN(CC(=O)O)CCN(CC(=O)[O-])CC1.[Gd+3] [DOTAREM] |  |  |  |  |  |  |  | 3.83 mM⁻¹ s⁻¹ |  | 
CNC[C@H](O)[C@@H](O)[C@H](O)[C@H](O)CO.CNC[C@H](O)[C@@H](O)[C@H](O)[C@H](O)CO.O=C([O-])CN(CCN(CC(=O)[O-])CC(=O)O)CCN(CC(=O)[O-])CC(=O)O.[Gd+3] [MAGNEVIST] |  |  |  |  |  |  |  | 4.02 mM⁻¹ s⁻¹ | 0.5% | 2.2%
